Measurements published in patent US9290765B2, “Protection against endothelial barrier dysfunction through inhibition of the tyrosine kinase abl-related gene (ARG)” (VERENIGING VOOR CHRISTELIJK HOGER ONDERWIJS, …, priority 2011, dated 2016).

Tests used:
HUVECs [1] = assay: Electrical Cell-substrate Impedance Sensing (ECIS) of HUVEC monolayers, thrombin stimulation; assay type: cell-based, human
Experimental: (§1) For ECIS measurements, cells were trypsinized and seeded in 1:1 density on gelatine-coated ECIS arrays, each containing 8 wells with 10 gold electrodes/well (8 W10E, Applied Biophysics, Troy, N.Y., USA). Culture medium was refreshed 24 h after seeding, while experiments were performed 48 h after seeding. For pretreatment, designated pharmacological inhibitors or vector were dissolved in M199 supplemented with 1% HSA. After 90 min of pretreatment, thrombin was added directly to the cells for a final concentration of 1 U/mL. During stimulation impedance was measured at multiple frequencies to allow for calculation of resistance attributable to cell-cell adhesion (Rb) and resistance attributable to cell-matrix interaction (alpha). The absolute resistance was measured, while the relative resistance was calculated by normalization to the time point just before addition of the thrombin, to correct for baseline differences.

HUVECs [2] = assay: HRP passage across thrombin-stimulated HUVEC monolayers on porous filters; assay type: cell-based, human; details: for effect on thrombin-induced HRP passage: HUVECs
Experimental: (§2) Endothelial barrier function was evaluated with horse radish peroxidase (HRP) passage and Electrical Cell-substrate Impedance Sensing (ECIS). For measurement of HRP passage, confluent cells were seeded in 1:1 density on 0.33 cm^2 Costar polycarbonate filters, pore-size 3.0 μm (Corning, Lowell, Mass., USA) and grown to confluence in 4 or 5 days, with change of culture medium every other day. For pretreatment, pharmacological inhibitors or vector were dissolved in M199 supplemented with 1% human serum albumin (HSA, Sanquin CLB), and after removal of culture medium, solutions were added to the upper compartment of the filters during 60 min. For stimulation, pretreatment medium was changed for 1% HSA/M199 containing designated inhibitors, HRP 5 μg/mL (Sigma Aldrich) and thrombin 1 U/mL. 1% HSA/M199 was added to the lower compartment. At indicated time points samples were taken from the lower compartment; HRP concentration in samples was detected by measuring chemoluminiscence after addition of TMB/E (Upstate/Millipore).

[3] = test system: human pulmonary microvascular endothelial cells (HPMVECs); assay: HRP passage over HPMVEC monolayers, thrombin stimulation; assay type: cell-based; details: imatinib 10 μM, thrombin 1 U/mL
Experimental: as §2

[4] = test system: human pulmonary microvascular endothelial cells (HPMVECs); assay: ECIS of HPMVEC monolayers, thrombin stimulation; assay type: cell-based; details: imatinib 10 μM, thrombin 1 U/mL
Experimental: as §1

[5] = test system: human foreskin microvascular endothelial cells (HFMVECs); assay: ECIS of HFMVEC monolayers, thrombin stimulation; assay type: cell-based; details: imatinib 10 μM, thrombin 1 U/mL
Experimental: as §1

HUVECs [6] = assay: Immunofluorescence staining of VE-cadherin, β-catenin and F-actin in thrombin-stimulated HUVECs; assay type: cell-based, human
Experimental: Cells were seeded on glass coverslips coated with gelatine 1% and pretreated with glutaraldehyde 0.5% (Fluka, St. Gallen, Switzerland). Cells were seeded in 1:1 density and grown to confluence in 48-72 hours. For pretreatment, culture medium was changed to 1% HSA/M199, containing pharmacological inhibitors or vector. After 60 min of pretreatment, thrombin was added directly to the wells for a final concentration of 1 U/mL. At indicated time points, medium was removed and warm paraformaldehyde 2% (Sigma Aldrich) was added to the cells, while kept on ice for 15 min. Cells were permeabilized with Triton X-100 0.05% (Sigma Aldrich) in phosphate-buffered saline (PBS), and incubated overnight with primary antibodies for β-catenin (1:100), VE-cadherin (1:400) or Arg (1:150) in 0.1% HSA/PBS. Subsequently, cells were washed and incubated with FITC-labeled secondary antibodies (Invitrogen, Paisly, United Kingdom) and rhodamine/phalloidin (Invitrogen) for 1 h at room temperature. Cells were washed and sealed in Vectashield mounting medium containing DAPI (Vector Laboratories Inc., Burlingham, Calif., USA) for nuclear staining. Immunofluorescent imaging was performed with an Axiovert 200 Marianas™ inverted wide-field fluorescence microscope, using a 40× Zeiss air lens (NA 0.75) and a 63× Zeiss oil lens (NA 1.4). […]

RhoA = assay: G-LISA RhoA Activity Assay in HUVEC lysates; assay type: cell-based, human; details: HUVECs; imatinib 10 μM; thrombin 1 U/mL
Experimental: After stimulation, cells were washed with ice-cold PBS and lysed with lysis buffer containing […] Tris/HCl pH 8.0, 0.15M NaCl, 0.09M KCl, 2 mM EDTA/NaOH pH 8.0, 5% Igepal, and 0.5% Triton X-100, further supplemented with PhosStop […] inhibitor (Roche Diagnostics, Mannheim, Germany), and Complete EDTA-free […] inhibitor (Roche Diagnostics). After centrifugation of the cell lysates, the supernatant was snap-frozen and stored at −80° C. Relative RhoA activity was determined with a G-LISA RhoA Activity Assay (Cytoskeleton Inc, Denver, Colo., USA), according to the manufacturers protocol.

[7] = HUVECs transfected with Arg siRNA, imatinib 10 μM, thrombin 1 U/mL
[8] = HUVECs, imatinib 10 μM, thrombin 1 U/mL

SMILES	basal endothelial barrier function / basal endothelial resistance (ECIS) (HUVECs [1]; HUVECs, no thrombin)	effect on thrombin-induced decrease in endothelial resistance (thrombin response, words) (HUVECs [1]; HUVECs, thrombin 1 U/mL)	effect on thrombin-induced HRP passage (HUVECs [2]; thrombin 1 U/mL)	HRP passage in Arg deficient cells, imatinib vs DMSO pretreatment (HUVECs [2]; [7])	inhibition at 10 µM (HUVECs [2]; Homo sapiens, HUVEC, read-out: inhibition of thrombin-induced HRP passage)	decrease in normalized resistance in Arg deficient cells, imatinib pretreatment (HUVECs [1]; [7])	thrombin response in c-Abl deficient cells (HUVECs [1]; HUVECs transfected with c-Abl siRNA, imatinib 10 μM, thrombin 1 U/mL)	maximal drop in electrical resistance (HUVECs [1]; HUVECs, imatinib 10 μM, Y-27632 10 μM, thrombin 1 U/mL, FIGS. 2C and D)	maximal decrease in normalized Rb (cell-cell interaction) (HUVECs [1]; [8])	thrombin-induced drop in cell-matrix interaction (alpha) (HUVECs [1]; [8])	maximal decrease in normalized resistance (HUVECs [1]; HUVECs, thrombin 1 U/mL, FIGS. 1B and 1C)	effect on thrombin-induced decrease in endothelial resistance (thrombin response, words) (HUVECs [1]; HUVECs, thrombin 1 U/mL, listed as Imatinib)	thrombin-induced macromolecule passage [3]	maximal drop in endothelial resistance [4]	effects on Rb and alpha ([4]; compared with HUVECs)	thrombin-induced maximal drop in endothelial resistance [5]	thrombin-induced loss of VE-cadherin and β-catenin from the membrane (HUVECs [6]; imatinib 10 μM, thrombin 30 min)	F-actin organization after thrombin (HUVECs [6]; imatinib pretreated, thrombin 15 min)	thrombin-induced RhoA activity (RhoA)
COc1cc2ncc(-c3ccccc3)nc2cc1OC [AG1296]	improved	did not inhibit																	
C[C@@H](N)[C@H]1CC[C@H](C(=O)Nc2ccncc2)CC1 [Y-27632]		reduced	reduced																
Cc1ccc(NC(=O)c2ccc(CN3CCN(C)CC3)cc2)cc1Nc1nccc(-c2cccnc2)n1 [imatinib, 4-[(4-methyl-1-piperazinyl)methyl]-N-[4-methyl-3-[[(4-(3-pyridinyl)-2-pyrimidinyl]amino]-phenyl]benzamidemethane sulfonate]		reduced	reduced	significantly lower	35 to 44%	no additive effect	still attenuated	−0.44±0.02	−0.87±0.03	attenuation	−0.41±0.03	attenuated	reduced	attenuated	Comparable effects	attenuated	partly reversed	not organized in F-actin stress fibers	not affected
